Experimental findings from patent US20250313574A1, “SIALIC ACID DERIVATIVES AND METHODS OF USING SAME” (EISAI R&D MANAGEMENT CO., LTD., priority 2022, published 2025) are described below.

Assay [1] addresses Recombinant human CD33 protein (Homo sapiens (Human), UniProt P20138). In words: CD33 competitive binding assay for HTS drug screen (fluorescent multivalent sialic acid probe). A digest of the protocol:
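Recombinant human CD33, coated overnight at 4° C from 10 μg/ml in pH 5.5 acetate, was preincubated briefly with compound. It was then exposed to a multivalent neutravidin/FITC/sialic acid analog A-375 probe (final 5 μM neutravidin, 15 μM A-375, 5 μM FITC) for 30 min at room temperature. After washing, bound FITC fluorescence was read.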

The target of assay [2] is Recombinant Human Siglec-3/CD33 protein (His-CD33) (Homo sapiens (Human), UniProt P20138). Description: Differential scanning fluorimetry (DSF) thermal shift assay. The format is binding. (In general: Differential scanning fluorimetry follows unfolding on heating by fluorescence.)
Chain of Recombinant Human Siglec-3/CD33 protein (His-CD33) (P20138 18-259): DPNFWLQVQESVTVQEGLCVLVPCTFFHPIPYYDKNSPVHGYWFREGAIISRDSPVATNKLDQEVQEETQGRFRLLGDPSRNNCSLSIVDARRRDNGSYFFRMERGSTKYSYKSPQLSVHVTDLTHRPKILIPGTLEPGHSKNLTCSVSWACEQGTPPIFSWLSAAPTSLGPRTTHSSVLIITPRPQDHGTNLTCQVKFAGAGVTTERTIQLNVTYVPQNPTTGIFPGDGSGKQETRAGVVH
Setting [3] is: difference in thermal melt of CD33 protein (0.5 μM) with 50 μM compound.
[4] abbreviates: thermal melt shift of 0.5 μM CD33 protein with 50 μM compound.

Chain of Recombinant human CD33 protein (P20138 18-259): as above

Consider `COCc1cc2cc(C(=O)NCc3cccc(/C=C/C[C@]4(C(=O)O)C[C@H](O)[C@@H](NC(C)=O)[C@H]([C@H](O)[C@H](O)CNC(=O)c5cc(C)c(O)c(C)c5)O4)c3)ccc2[nH]1` [A-232], for which the 50% effective concentration (EC50) in assay [1] is 74 nM. For the same compound, in assay [2] (setting [3]), the “DSF (dTmD)” value is 9.8 °C.
Taken in the same sequence, the figures for `Cc1cc(C(=O)NC[C@@H](O)[C@@H](O)[C@@H]2O[C@@](C/C=C/c3cccc(CNC(=O)c4scnc4C)c3)(C(=O)O)C[C@H](O)[C@H]2NC(=O)Cn2cc(C3CCCCC3)nn2)cc(C)c1O` [A-276] were 2920 nM and 6.2 °C.
Regarding `Cc1cc(C(=O)NC[C@@H](O)[C@@H](O)[C@@H]2O[C@@](OC3CCCCC3NC(=O)CNC(=O)OCc3ccccc3)(C(=O)O)C[C@H](O)[C@H]2NC(=O)Cn2cc(C3CCCCC3)nn2)cc(C)c1O` (some centres unmarked) [A-324], the EC50 in assay [1] was determined as 3670 nM. In addition, the “DSF (dTmD)” value in assay [2] (setting [3]) amounted to 3.2 °C.
Taken in the same sequence, the figures for `CC(=O)N[C@H]1[C@H]([C@H](O)[C@H](O)CNC(=O)c2cc(C)c(O)c(C)c2)O[C@@](C/C=C/c2cccc(CNC(=O)c3ccc(NS(C)(=O)=O)cc3)c2)(C(=O)O)C[C@@H]1O` [A-239] were 1120 nM and 2.2 °C.
As to `CC(=O)N[C@H]1[C@H]([C@H](O)[C@H](O)CNC(=O)c2ccc3ncsc3c2)O[C@@](CCN2CCOC[C@@]23CCN(C(=O)OC(C)(C)C)C3)(C(=O)O)C[C@@H]1O` [A-110], in assay [1], the half-maximal effective concentration (EC50) was 30 nM. For the same compound, the “DSF (dTmD)” value in assay [2] (setting [4]) was found to be 12.2.
On to `CC(=O)N[C@H]1[C@H]([C@H](O)[C@H](O)CNC(=O)c2cc(C)c(O)c(C)c2)O[C@@](CCN2CCOC[C@@]23CCN(c2cc(C4CC4)ccn2)C3)(C(=O)O)C[C@@H]1O` [A-036], for which the EC50 in assay [1] was 16 nM. For the same compound, in assay [2] (setting [4]), the “DSF (dTmD)” value turned out to be 12.5.
As to `Cc1cc(C(=O)NC[C@@H](O)[C@@H](O)[C@@H]2O[C@@](C/C=C/c3cccc(CNC(=O)c4ccn(C)c(=O)c4)c3)(C(=O)O)C[C@H](O)[C@H]2NC(=O)Cn2cc(C3CCCCC3)nn2)cc(C)c1O` [A-273], the EC50 in assay [1] was 9940 nM. Besides, in assay [2] (setting [3]), the “DSF (dTmD)” value amounted to 5.4 °C.
Taken in the same sequence, the figures for `Cc1cc(C(=O)NC[C@@H](O)[C@@H](O)[C@@H]2O[C@@](CC(O)[C@@H](O)c3cccc(NC(=O)OC(C)(C)C)c3)(C(=O)O)C[C@H](O)[C@H]2NC(=O)Cn2cc(C3CCCCC3)nn2)cc(C)c1O` (some centres unmarked) [A-300] were 44600 nM and 1.6 °C.
With `CC(=O)N[C@H]1[C@H]([C@H](O)[C@H](O)CNC(=O)c2cc(C)c(O)c(C)c2)O[C@@](CCN2CCOC[C@@]23CCN(C(=S)NC2CCCCC2)C3)(C(=O)O)C[C@@H]1O` [A-052], the EC50 in assay [1] amounted to 66 nM. In addition, in assay [2] (setting [4]), the “DSF (dTmD)” value was determined as 9.9.
Regarding `CC(=O)N[C@H]1[C@H]([C@H](O)[C@H](O)CNC(=O)c2cc(C)c(O)c(C)c2)O[C@@](CCN2CCOC[C@@]23CCN(C(=O)OC(C)(C)C)C3)(C(=O)NS(C)(=O)=O)C[C@@H]1O` [A-365], in assay [1], the EC50 came to 37500 nM. The “DSF (dTmD)” value in assay [2] (setting [3]) is −0.3 °C.
The matching figures for `CC(=O)N[C@H]1[C@H]([C@H](O)[C@H](O)CNC(=O)c2cc(C)c(O)c(C)c2)O[C@@](C/C=C/c2cccc(CNC(=O)c3ccc4[nH]ccc4c3)c2)(C(=O)O)C[C@@H]1O` [A-234]: 930 nM and 4.6 °C.
Take `CC(=O)N[C@H]1[C@H]([C@H](O)[C@H](O)CNC(=O)c2cc(C)c(O)c(C)c2)O[C@@](CC2OC(C)(C)O[C@@H]2c2ccc(C)c(N3CCCC3=O)c2)(C(=O)O)C[C@@H]1O` (some centres unmarked) [A-320]: the EC50 in assay [1] amounted to 960 nM. For the same compound, the “DSF (dTmD)” value in assay [2] (setting [3]) amounted to 4.8 °C.
Take `CC(=O)N[C@H]1[C@H]([C@H](O)[C@H](O)CNC(=O)c2cc(C)c(O)c(C)c2)O[C@@](CCN2CCOC[C@@]23CCN(C(=O)NC2CCC(F)(F)CC2)C3)(C(=O)O)C[C@@H]1O` [A-051]: the EC50 in assay [1] was determined as 64 nM. The “DSF (dTmD)” value in assay [2] (setting [4]) is 10.8.
Turning to `CC(=O)N[C@H]1[C@H]([C@H](O)[C@H](O)CNC(=O)c2ccc(Cl)c(Cl)c2)O[C@@](CCN2CCOC[C@@]23CCN(C(=O)OC(C)(C)C)C3)(C(=O)O)C[C@@H]1O` [A-186], the EC50 in assay [1] was 127 nM. The “DSF (dTmD)” value in assay [2] (setting [4]) is on record as 10.8.
Consider `CC(=O)N[C@H]1[C@H]2O[C@](C(=O)O)(C/C=C/c3cccc(c3)[C@@H](NC(=O)[C@H]3CCCOC3)CCCCOc3c(C)cc(cc3C)C(=O)NC[C@@H](O)[C@H]2O)C[C@@H]1O` [A-348], for which the EC50 in assay [1] is 10100 nM. Moreover, the “DSF (dTmD)” value in assay [2] (setting [3]) was determined as 3.6 °C.
Taken in the same sequence, the figures for `COc1cc(C(=O)NCc2cccc(/C=C/C[C@]3(C(=O)O)C[C@H](O)[C@@H](NC(=O)Cn4cc(C5CCCCC5)nn4)[C@H]([C@H](O)[C@H](O)CNC(=O)c4cc(C)c(O)c(C)c4)O3)c2)ccc1O` [A-279] were 10400 nM and 4.5 °C.
The matching figures for `Cc1cc(C(=O)NC[C@@H](O)[C@@H](O)[C@@H]2O[C@@](C/C=C/c3cccc(CNC(=O)C4C5OCCC[C@H]54)c3)(C(=O)O)C[C@H](O)[C@H]2NC(=O)Cn2cc(C3CCCCC3)nn2)cc(C)c1O` (some centres unmarked) [A-272]: 9640 nM and 4.9 °C.
The matching figures for `Cc1cc(C(=O)NC[C@@H](O)[C@@H](O)[C@@H]2O[C@@](OC3CCCCC3NC(=O)CN(C)C(=O)OCc3ccccc3)(C(=O)O)C[C@H](O)[C@H]2NC(=O)Cn2cc(C3CCCCC3)nn2)cc(C)c1O` (some centres unmarked) [A-325]: 13200 nM and 3.3 °C.
With `C=C[C@@H]1CN(C(=O)OC(C)(C)C)C[C@]1(C)NCC[C@]1(C(=O)O)C[C@H](O)[C@@H](NC(C)=O)[C@H]([C@H](O)[C@H](O)CNC(=O)c2cc(C)c(O)c(C)c2)O1` [A-035], the EC50 in assay [1] turned out to be 413 nM. The “DSF (dTmD)” value in assay [2] (setting [4]) was found to be 7.4.
Taken in the same sequence, the figures for `CC(=O)N[C@H]1[C@H]([C@H](O)[C@H](O)CNC(=O)c2cc(C)c(O)c(C)c2)O[C@@](CCN2C[C@@H](C)OC[C@@]23CCN(C(=O)OC(C)(C)C)C3)(C(=O)O)C[C@@H]1O` [A-004] were 98 nM and 9.1.
Taken in the same sequence, the figures for `CC(=O)N[C@H]1[C@H]([C@H](O)[C@H](O)CNC(=O)c2ccc(-c3ncn[nH]3)cc2)O[C@@](CCN2CCOC[C@@]23CCN(C(=O)OC(C)(C)C)C3)(C(=O)O)C[C@@H]1O` [A-142] were 340 nM and 6.4.
Taken in the same sequence, the figures for `CC(=O)Nc1ccc(C(=O)NC[C@@H](O)[C@@H](O)[C@@H]2O[C@@](CCN3CCOC[C@@]34CCN(C(=O)OC(C)(C)C)C4)(C(=O)O)C[C@H](O)[C@H]2NC(C)=O)cc1` [A-184] were 1090 nM and 6.0.
Take `CC(=O)N[C@H]1[C@H]([C@H](O)[C@H](O)CNC(=O)c2ccc(O)c(C)c2)O[C@@](CCN2CCOC[C@@]23CCN(C(=O)OC(C)(C)C)C3)(C(=O)O)C[C@@H]1O` [A-117]: in assay [1], the EC50 was 28 nM. Besides, the “DSF (dTmD)” value in assay [2] (setting [4]) is on record as 12.4.
In the case of `Cc1cc(C(=O)NC[C@@H](O)[C@@H](O)[C@@H]2O[C@@](OC3CCCCC3NC(=O)CNC(=O)COC3CCCC3)(C(=O)O)C[C@H](O)[C@H]2NC(=O)Cn2cc(C3CCCCC3)nn2)cc(C)c1O` (some centres unmarked) [A-329], the EC50 in assay [1] was 15200 nM. Further, the “DSF (dTmD)” value in assay [2] (setting [3]) was determined as 1.4 °C.
With `CC(=O)N[C@H]1[C@H]([C@H](O)[C@H](O)CNC(=O)c2cn(C)nc2C(F)(F)F)O[C@@](CCN2CCOC[C@@]23CCN(C(=O)OC(C)(C)C)C3)(C(=O)O)C[C@@H]1O` [A-174], the EC50 in assay [1] came out at 1170 nM. In assay [2] (setting [4]), the “DSF (dTmD)” value is given as 6.6.

What is called EC50 is the concentration needed to bring the measured effect to its halfway point.
